“And” between values parts separate entries of the source, which are not always exact repeats. Equal entries are not always repeated. Toxic doses and inconclusive results are not listed.
Tested on: P388 leukemia ip, CD2F1 mice, survival T/C
Test: NCI In Vivo Anticancer Drug Screen. Data for tumor model P388 Leukemia (intraperitoneal) in CD2F1 (CDF1) mice
Conditions: endpoint: median survival time, higher = longer survival
Outline: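 Mice carrying the transplanted tumor received test compound or vehicle. Survival was recorded in each group, and the value is the treated-group measurement divided by that of the vehicle-treated control group.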

[1] = dose: 50.0 mg/kg/injection, schedule: Q01DX009 (ip), vehicle: saline
[2] = dose: 100.0 mg/kg/injection, schedule: Q01DX009 (ip), vehicle: saline
[3] = dose: 200.0 mg/kg/injection, schedule: Q01DX009 (ip), vehicle: saline
[4] = dose: 50.0 mg/kg/injection, schedule: Q01DX005 (ip), vehicle: saline with Tween-80
[5] = dose: 100.0 mg/kg/injection, schedule: Q01DX005 (ip), vehicle: saline with Tween-80
[6] = dose: 50.0 mg/kg/injection, schedule: Q01DX009 (ip), vehicle: saline with Tween-80

With OCCN(CCO)CC(O)COc1cccc2ccccc12 (centres undefined) the T/C (dose: 12.5 mg/kg/injection, schedule: Q01DX009 (ip), vehicle: saline) was 98 % of control and 116 % of control, the T/C (dose: 25.0 mg/kg/injection, schedule: Q01DX009 (ip), vehicle: saline) was 110 % of control and 96 % of control and the T/C [1] was 103 % of control and 107 % of control. For the same compound, the T/C [2] was 104 % of control and 97 % of control and the T/C [3] was 110 % of control and 115 % of control.

CN1CCc2c1n(-c1ccccc1)c(=S)n(-c1ccccc1)c2=S was tested, and the T/C (dose: 50.0 mg/kg/injection, schedule: Q01DX005 (ip), vehicle: Klucel (hydroxypropylcellulose) (HPC)) was 107 % of control, the T/C (dose: 100.0 mg/kg/injection, schedule: Q01DX005 (ip), vehicle: Klucel (hydroxypropylcellulose) (HPC)) was 100 % of control and the T/C (dose: 200.0 mg/kg/injection, schedule: Q01DX005 (ip), vehicle: Klucel (hydroxypropylcellulose) (HPC)) was 98 % of control.

With CC1Cc2nc3ccccc3nc2C1 the T/C (dose: 60.0 mg/kg/injection, schedule: Q01DX005 (ip), vehicle: saline with Tween-80) was 99 % of control, the T/C (dose: 120.0 mg/kg/injection, schedule: Q01DX005 (ip), vehicle: saline with Tween-80) was 99 % of control and the T/C (dose: 240.0 mg/kg/injection, schedule: Q01DX005 (ip), vehicle: saline with Tween-80) was 104 % of control.

With C=C1C(=O)OC2/C=C(\C)CC/C=C(\C)C(OC(C)=O)C(OC(=O)C3(C)OC3C)C12O (centres undefined) the T/C (dose: 12.5 mg/kg/injection, schedule: Q01DX009 (ip), vehicle: Klucel (hydroxypropylcellulose) (HPC)) was 105 % of control, the T/C (dose: 25.0 mg/kg/injection, schedule: Q01DX009 (ip), vehicle: Klucel (hydroxypropylcellulose) (HPC)) was 115 % of control and the T/C (dose: 50.0 mg/kg/injection, schedule: Q01DX009 (ip), vehicle: Klucel (hydroxypropylcellulose) (HPC)) was 115 % of control. The T/C (dose: 100.0 mg/kg/injection, schedule: Q01DX009 (ip), vehicle: Klucel (hydroxypropylcellulose) (HPC)) was 94 % of control.

For Cn1nnnc1NNc1nnnn1C, the T/C [4] was 99 % of control, the T/C [5] was 99 % of control and the T/C (dose: 200.0 mg/kg/injection, schedule: Q01DX005 (ip), vehicle: saline with Tween-80) was 99 % of control.

In the case of CNC(=O)OCc1c(COC(=O)NC)c2n(c1C)CS(=O)(=O)C2, the T/C (dose: 25.0 mg/kg/injection, schedule: Q01DX005 (ip), vehicle: saline with Tween-80) is reported as 122 % of control and the T/C [5] is reported as 204 % of control and 211 % of control.

For NC(=O)/C=C1\NC(=O)CS1, the T/C (dose: 100.0 mg/kg/injection, schedule: Q01DX009 (ip), vehicle: saline sonified) was 95 % of control, the T/C (dose: 200.0 mg/kg/injection, schedule: Q01DX009 (ip), vehicle: saline sonified) was 90 % of control and the T/C (dose: 400.0 mg/kg/injection, schedule: Q01DX009 (ip), vehicle: saline sonified) was 95 % of control.

O=C(c1ccc(Cl)cc1)n1c(Cl)c(/C=N\Nc2cccc([N+](=O)[O-])c2)c2ccccc21 was tested, and the T/C (dose: 50.0 mg/kg/injection, schedule: Q01DX001 (ip), vehicle: Klucel (hydroxypropylcellulose) (HPC)) was 86 % of control, the T/C (dose: 100.0 mg/kg/injection, schedule: Q01DX001 (ip), vehicle: Klucel (hydroxypropylcellulose) (HPC)) was 86 % of control and the T/C (dose: 200.0 mg/kg/injection, schedule: Q01DX001 (ip), vehicle: Klucel (hydroxypropylcellulose) (HPC)) was 87 % of control.

O=C1CSC(=S)N1c1cccc(F)c1 was tested, and the T/C (dose: 50.0 mg/kg/injection, schedule: Q01DX009 (ip), vehicle: suspension in saline) was 108 % of control, the T/C (dose: 100.0 mg/kg/injection, schedule: Q01DX009 (ip), vehicle: suspension in saline) was 100 % of control and the T/C (dose: 200.0 mg/kg/injection, schedule: Q01DX009 (ip), vehicle: suspension in saline) was 100 % of control.

For COc1ccc(CNCC#N)c(OC)c1, the T/C [4] was 97 % of control and the T/C [5] was 100 % of control.

In the case of N#CCC(C#N)N1CCOCC1 (centres undefined), the T/C (dose: 25.0 mg/kg/injection, schedule: Q01DX009 (ip), vehicle: saline with Tween-80) is reported as 100 % of control, the T/C [6] is reported as 100 % of control and the T/C (dose: 100.0 mg/kg/injection, schedule: Q01DX009 (ip), vehicle: saline with Tween-80) is reported as 100 % of control.

O=C1NNC(c2ccccc2)C1(Cl)Cl (centres undefined) was tested, and the T/C (dose: 12.5 mg/kg/injection, schedule: Q01DX009 (ip), vehicle: saline with Tween-80) was 101 % of control and the T/C [6] was 99 % of control.

COc1cccc2c1C(=O)c1c(O)c3c(c(O)c1C2=O)CC(NO)CC3OC1CC(NC(=O)C(F)(F)F)C(O)C(C)O1 (centres undefined) was tested, and the T/C (dose: 1.56 mg/kg/injection, schedule: Q01DX009 (ip), vehicle: other) was 103 % of control and 101 % of control, the T/C (dose: 3.13 mg/kg/injection, schedule: Q01DX009 (ip), vehicle: other) was 104 % of control and 106 % of control and the T/C (dose: 6.25 mg/kg/injection, schedule: Q01DX009 (ip), vehicle: other) was 108 % of control and 110 % of control. For the same compound, the T/C (dose: 12.5 mg/kg/injection, schedule: Q01DX009 (ip), vehicle: other) was 113 % of control and the T/C (dose: 25.0 mg/kg/injection, schedule: Q01DX009 (ip), vehicle: other) was 116 % of control and 107 % of control.

With Cc1ncc(-c2ccccc2)c(N)n1 the T/C [1] was 91 % of control, the T/C [2] was 92 % of control and the T/C [3] was 102 % of control.

— PubChem BioAssay AID330 (DTP/NCI, 2004)
